Data published in patent publication US9365522B2, “Pyrazole amide derivative” (AMGEN INC., priority 2015, dated 2016).

Target: T1, ligand binding domain of human ROR gamma (Homo sapiens, UniProt P51449)
T1 construct: NM_001001523; expressed in transfected cells; host or cells: HEK293T
T1 sequence (P51449 247-497 isoform P51449-2): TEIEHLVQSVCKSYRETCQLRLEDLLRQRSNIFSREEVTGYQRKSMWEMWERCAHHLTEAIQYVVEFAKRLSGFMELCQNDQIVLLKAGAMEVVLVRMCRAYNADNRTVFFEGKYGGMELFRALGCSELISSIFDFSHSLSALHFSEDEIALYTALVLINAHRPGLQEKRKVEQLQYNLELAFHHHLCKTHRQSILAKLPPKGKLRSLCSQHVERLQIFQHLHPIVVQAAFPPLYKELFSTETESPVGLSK
Assay: ROR gamma reporter gene assay (GAL4-RORγ LBD luciferase, Dual-Glo)
Assay type: cell-based
Conditions: HEK293T cells transfected with pM-ROR gamma, 8 concentrations 3.5 nM to 10.5 μM, 24 h incubation; read-out: result (pIC50, inhibition of RORγ transcriptional activity) (converted)
Method in brief: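 HEK293T cells co-transfected with GAL4-DBD fused to human RORγ LBD (aa 247-497), 5×UAS firefly luciferase reporter and CMV-renilla, in charcoal-stripped serum.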

Compound	IC50 [pM]
CC1(C)[C@@H]2C[C@H](N(C[C@H](O)c3sccc3Cl)C(=O)c3cnn([C@H]4CC[C@](C)(C(=O)O)CC4)c3C(F)(F)F)C[C@@H]21 [Example 396, trans-4-(4-((2-(3-chlorothiophen-2-yl)-2-hydroxyethyl)((1R,3r,5S)-6,6-dimethylbicyclo[3.1.0]hexan-3-yl)carbamoyl)-5-(trifluoromethyl)-1H-pyrazol-1-yl)-1-methylcyclohexanecarboxylic acid]	891000
CC1(C)[C@@H]2C[C@H](N(C[C@@H](O)c3sccc3Cl)C(=O)c3cnn([C@H]4CC[C@](C)(C(=O)O)CC4)c3C(F)(F)F)C[C@@H]21 [Example 397, trans-4-(4-((2-(3-chlorothiophen-2-yl)-2-hydroxyethyl)((1R,3r,5S)-6,6-dimethylbicyclo[3.1.0]hexan-3-yl)carbamoyl)-5-(trifluoromethyl)-1H-pyrazol-1-yl)-1-methylcyclohexanecarboxylic acid]	61700
CC1(C)[C@@H]2C[C@H](N(CC(=O)c3ncccc3Cl)C(=O)c3cnn([C@H]4CC[C@](C)(C(=O)O)CC4)c3C(F)(F)F)C[C@@H]21 [Example 398, trans-4-(4-((2-(3-chloropyridin-2-yl)-2-oxoethyl)((1R,3r,5S}-6,6-dimethylbicyclo[3.1.0]hexan-3-yl)carbamoyl)-5-(trifluoromethyl)-1H -pyrazol-1-yl)-1-methylcyclohexanecarboxylic acid]	676000
CC1(C)[C@@H]2C[C@H](N(CC(O)c3c(Cl)cccc3OC(F)F)C(=O)c3cnn([C@H]4CC[C@](C)(C(=O)O)CC4)c3C(F)(F)F)C[C@@H]21 (stereo partly drawn) [Example 399, trans-4-(4-((2-(2-chloro-6-(difluoromethoxy)phenyl)-2-hydroxyethyl)((1R,3r,5S)-6,6-dimethylbicyclo[3.1.0]hexan-3-yl)carbamoyl)-5-(trifluoromethyl)-1H-pyrazol-1-yl)-1-methylcyclohexanecarboxylic acid]	87100
CC1(C)[C@@H]2C[C@H](N(CC(=O)c3c(Cl)cccc3OC(F)F)C(=O)c3cnn([C@H]4CC[C@](C)(C(=O)O)CC4)c3C(F)(F)F)C[C@@H]21 [Example 400, trans-4-(4-((2-(2-chloro-6-(difluoromethoxy)phenyl)-2-oxyethyl)((1R,3r,5S)-6,6-dimethylbicyclo[3.1.0]hexan-3-yl)carbamoyl)-5-(trifluoromethyl)-1H-pyrazol-1-yl)-1-methylcyclohexanecarboxylic acid]	28800
CC1(C)[C@@H]2C[C@H](N(CC(O)c3ccccn3)C(=O)c3cnn([C@H]4CC[C@](C)(C(=O)O)CC4)c3C(F)(F)F)C[C@@H]21 (stereo partly drawn) [Example 401]	2.82e+06
CC1(C)[C@@H]2C[C@H](N(CC(=O)c3c(Cl)cccc3Cl)C(=O)c3cnn([C@H]4CC[C@](C)(C(=O)O)CC4)c3C3(F)CC3)C[C@@H]21 [Example 404, trans-4-(4-((2-(2,6-dichlorophenyl)-2-oxoethyl)((1R,3r,5S)-6,6-dimethylbicyclo[3.1.0]hexan-3-yl)carbamoyl)-5-(1-fluorocyclopropyl)-1H-pyrazol-1-yl)-1-methylcyclohexanecarboxylic acid]	22400

Results, then the molecule that gave them:

IC50 [pM]	Compound
≥ 1.05e+07	CC1(C)[C@@H]2C[C@H](N(CCn3cnc4cccc(Cl)c43)C(=O)c3cnn([C@H]4CC[C@](C)(C(=O)O)CC4)c3C(F)(F)F)C[C@@H]21 [Example 405, trans-4-(4-((2-(7-chloro-1H-benzo(d)imidazol-1-yl)ethyl)((1R,3r,5S)-6,6-dimethylbicyclo[3.1.0]hexan-3-yl)carbamoyl)-5-(trifluoromethyl)-1H-pyrazol-1-yl)-1-methylcyclohexanecarboxylic acid]
50100	CC(C)(C)CN(CC(=O)c1c(Cl)cccc1OC(F)F)C(=O)c1cnn([C@H]2CC[C@](C)(C(=O)O)CC2)c1C(F)(F)F [Example 406, trans-4-(4-((2-(2-chloro-6-(difluoromethoxy)phenyl)-2-oxoethyl)-(2,2-dimethylpropyl)carbamoyl)-5-(trifluoromethyl)pyrazol-1-yl)-1-methylcyclohexane-1-carboxylic acid]
479000	Cc1ncc(Cl)c(C(O)CN(C(=O)c2cnn([C@H]3CC[C@](C)(C(=O)O)CC3)c2C(F)(F)F)[C@H]2C[C@@H]3[C@H](C2)C3(C)C)n1 (stereo partly drawn) [Example 407, trans-4-(4-((2-(5-chloro-2-methylpyrimidin-4-yl)-2-hydroxyethyl)((1R,3r,5S)-6,6-dimethylbicyclo[3.1.0]hexan-3-yl)carbamoyl)-5-(trifluoromethyl)-1H-pyrazol-1-yl)-1-methylcyclohexanecarboxylic acid]
331000	CC1(C)[C@@H]2C[C@H](N(CC(O)c3ncncc3Cl)C(=O)c3cnn([C@H]4CC[C@](C)(C(=O)O)CC4)c3C(F)(F)F)C[C@@H]21 (stereo partly drawn) [Example 408, trans-4-(4-((2-(5-chloropyrimidin-4-yl)-2-hydroxyethyl)((1R,3r,5S)-6,6-dimethylbicyclo[3.1.0]hexan-3-yl)carbamoyl)-5-(trifluoromethyl)-1H-pyrazol-1-yl)-1-methylcyclohexanecarboxylic acid]
776000	CC1(C)[C@@H]2C[C@H](N(CC(N)c3c(F)cccc3Cl)C(=O)c3cnn([C@H]4CC[C@](C)(C(=O)O)CC4)c3C(F)(F)F)C[C@@H]21 (stereo partly drawn) [Example 409, trans-4-(4-((2-amino-2-(2-chloro-6-fluorophenyl)ethyl)((1R,3r,5S)-6,6-dimethylbicyclo[3.1.0]hexan-3-yl)carbamoyl)-5-(trifluoromethyl)-1H-pyrazol-1-yl)-1-methylcyclohexanecarboxylic acid]
2.14e+06	Cc1nccnc1C(O)CN(C(=O)c1cnn([C@H]2CC[C@](C)(C(=O)O)CC2)c1C(F)(F)F)[C@H]1C[C@@H]2[C@H](C1)C2(C)C (stereo partly drawn) [Example 410, trans-4-(4-(((1R,3r,5S)-6,6-dimethylbicyclo[3.1.0]hexan-3-yl)(2-hydroxy-2-(3-methylpyrazin-2-yl)ethyl)carbamoyl)-5-(trifluoromethyl)-1H-pyrazol-1-yl)-1-methylcyclohexanecarboxylic acid]
224000	CC1(C)[C@@H]2C[C@H](N(CC(O)c3ccsc3Cl)C(=O)c3cnn([C@H]4CC[C@](C)(C(=O)O)CC4)c3C(F)(F)F)C[C@@H]21 (stereo partly drawn) [Example 411, trans-4-(4-((2-(2-chlorothiophen-3-yl)-2-hydroxyethyl)((1R,3r,5S)-6,6-dimethylbicyclo[3.1.0]hexan-3-yl)carbamoyl)-5-(trifluoromethyl)-1H-pyrazol-1-y1)-1-methylcyclohexanecarboxylic acid]
1.12e+06	O=C(c1c(C(F)(F)F)nn([C@H]2CC[C@H](C(=O)O)CC2)c1C(F)(F)F)N(CCc1c(Cl)cncc1Cl)Cc1ccc(F)cc1 [Example 412, trans-4-(4-(2-(3,5-dichloropyridin-4-yl)ethyl-((4-fluorophenyl)methyl)carbamoyl)-3,5-bis(trifluoromethyl)pyrazol-1-yl)cyclohexane-1-carboxylic acid]
